These results are taken from patent US20050038070A1, “Asthma and allergic inflammation modulators” (AMGEN INC., priority 2003, published 2005).

Bounds are passed on as bounds.

As usually defined, the IC50 is the point on the concentration scale where inhibition reaches its midpoint. The low end stands for higher potency, the high end for lower potency.

The target in this assay is T1, human CRTH2 (Homo sapiens, UniProt Q9Y5Y4).
T1 construct: Full-length human CRTH2 cDNA was generated by polymerase chain reaction (PCR); expressed in transfected cells; host or cells: 293 cells stably transfected with pHLT124 (pcDNA3.1(+)), G418-selected; named 293(124)
T1 sequence (Q9Y5Y4 1-395): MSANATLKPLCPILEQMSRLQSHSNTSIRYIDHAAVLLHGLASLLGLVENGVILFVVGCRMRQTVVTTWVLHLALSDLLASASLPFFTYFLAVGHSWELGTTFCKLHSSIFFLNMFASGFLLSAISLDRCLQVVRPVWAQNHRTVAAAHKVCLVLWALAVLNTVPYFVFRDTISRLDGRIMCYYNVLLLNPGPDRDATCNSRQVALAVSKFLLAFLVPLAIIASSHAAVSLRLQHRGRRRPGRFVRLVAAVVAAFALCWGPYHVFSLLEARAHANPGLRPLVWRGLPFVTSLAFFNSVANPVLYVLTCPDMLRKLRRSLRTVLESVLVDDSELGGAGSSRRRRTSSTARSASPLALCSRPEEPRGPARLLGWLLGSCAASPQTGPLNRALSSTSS
As to the kind of experiment: Human CRTH2 binding assay (3H-PGD2 binding, 293(124) cells). Particulars: 3H-PGD2 binding to 293(124) cells stably expressing human CRTH2. On the procedure:
Human CRTH2 Binding Assay
Full-length human CRTH2 cDNA was generated by polymerase chain reaction (PCR) using human genomic DNA as template and subsequently cloned into pcDNA3.1(+) (Invitrogen), generating a CRTH2 expression plasmid pHLT124. The plasmid was transfected into 293 cells, which […] CRTH2, using LipofectAMINETM reagents (Gibco/BRL). G418 ([…]) was added to the culture 48 h after transfection and cells were maintained under selection for 3 weeks to ensure that all surviving cells stably expressed CRTH2. These cells are labeled as 293(124) hereafter.
^3H-PGD2 binding assay was performed using 293(124) cells. In brief, cells were washed and suspended in RPMI containing 0.5% BSA and 20 mM HEPES. Each assay contained 25,000 cells, appropriate amount of test compound when necessary and a mixture of 1 nM ^3H-PGD2 (Amersham Pharmacia Biotech) and 30 nM of unlabeled PGD2 (Cayman Chemicals) in […] final volume. The cell mixture was incubated at room temperature for 2.5 h with shaking and the cells were separated from free ^3H-PGD2 and transferred onto a filter plate using a cell harvester. Radioactivity bound to the cells was measured on a liquid scintillation counter. Nonspecific binding was determined in the presence of […] of unlabeled PGD2.
On to `CC(=O)N(c1ccc(Cl)cc1)[C@H]1C[C@@H](C)N(C(=O)c2ccc(Oc3ccccc3)cc2)c2ccccc21` [Compound 9], for which the IC50 is ≥ 40 nM.

For the molecule `CC(=O)N(c1ccccc1)[C@H]1C[C@@H](C)N(C(=O)c2ccccc2)c2ccccc21` [Compound 3], the IC50 is < 40 nM.

Turning to `CC(=O)N[C@H]1C[C@@H](C)N(C(=O)c2ccccc2)c2ccccc21` [Compound 12], the IC50 was ≥ 40 nM.

In the case of `CCCCC(=O)N(c1ccccc1)[C@H]1C[C@@H](C)N(C(=O)c2ccccc2)c2ccccc21` [Compound 4], the IC50 was ≥ 40 nM.
